We go through three molecules from patent publication US6710049B2, “Azole compounds as anti-fungal agents” (Ranbaxy Laboratories Limited, priority 2000, dated 2004).

Values after ≈ are worked out from the molar mass of the structure shown.

One assay relates to Aspergillus species. The settings on record: isolates of Aspergillus species; cited from earlier work.
For assay [1], the target named is lanosterol 14α-de-methylase. As to conditions: the target enzyme in the fungus; cited from earlier work.
The next assay deals with Aspergillus fumigatous. Nature of the assay: In vivo anti-fungal activity, ED50 in systemically infected mice. Further details: species or system Swiss albino mice. The settings on record: mice infected i.v. with Aspergillus fumigatous, dosing for five days. How it is done: The in-vivo evaluation of the compound can be carried out at a series of dose levels by oral or I. V. injection to mice which are inoculated I.V. with the minimum lethal dose of Candida albicans, Cryptococcus neoformans or Aspergillus fumigatus by the tail vein. Activity is based on the survival of a treated group of mice after the death of an untreated group of mice. For Aspergillus and Cryptococcus infections, target organs were cultured after treatment to document the number of mice cured of the infection for further assessment of activity.
Method: Briefly, Swiss albino mice weighing 20±2 G were injected intravenously (tail vein) with sufficient fungal cells to kill 100% of the untreated animals for Aspergillus fumigatous strain used. In all cases each group comprised of six mice. Five does levels, utilizing doubling dilution range, were employed per determination ranging from 25 to 1.56 mg/kg BW. Dosing was carried out for five days starting after 30 minutes of infection. […] Treated animals were monitored twice daily for 14 days post infection at which time the experiment was terminated and ED50 was calculated.

Consider `OC(Cn1cncn1)(Cn1cncn1)c1ccc(F)cc1F` [Fluconazole], for which the “minimum inhibitory concentration (MIC) values” in the assay with Aspergillus species was 400 µg/mL (≈ 1310 µM). The IC50 in assay [1] is 4.8 µM.

Turning to `CCC(C)n1ncn(-c2ccc(N3CCN(c4ccc(OCC5COC(Cn6cncn6)(c6ccc(Cl)cc6Cl)O5)cc4)CC3)cc2)c1=O` (stereo not drawn) [Itraconazole], the ED50 was determined as 8.84 mg/kg body weight with Aspergillus fumigatous (Day 7 post infection) and 21.02 mg/kg body weight with Aspergillus fumigatous (Day 14 post infection).

As to `C[C@@H](n1ncn(-c2ccc(OCC(F)(F)C(F)F)cc2)c1=O)[C@](O)(Cn1cncn1)c1ccc(F)cc1F` [TAK 187, 2-[(1R,2R)-2-(2,4-difluorophenyl)-2-hydroxy-1-methyl-3-(1H-1,2,4-triazol-1-yl)propyl]-4-(2′,2′,3′,3′-tetraflouropropoxyphenyl)-3(2H,4H)-1,2,4-triazolone], the ED50 is given as 10.08 mg/kg body weight with Aspergillus fumigatous (Day 7 post infection) and 20.39 mg/kg body weight in the assay with Aspergillus fumigatous (Day 14 post infection).

Broadly, the IC50 is the concentration that inhibits the measured activity by half.
